Experimental data from ChEMBL document CHEMBL4387741, “Optimization of novel reversible Bruton's tyrosine kinase inhibitors identified using Tethering-fragment-based screens” (Bioorg Med Chem, 2019).

Legend:
[1] = target: Dual specificity protein kinase CLK4 (Homo sapiens) (UniProt Q9HAZ1); assay: Inhibition of wild-type human partial length CLK4 (R135 to K481 residues) expressed in bacterial expression system at 1 uM by Kinomescan method relative to control
[2] = target: Casein kinase I isoform gamma-3 (Homo sapiens) (UniProt Q9Y6M4); assay: Inhibition of wild-type human full length CSNK1G3 (M1 to K447 residues) expressed in bacterial expression system at 1 uM by Kinomescan method relative to control
[3] = test system: Epidermal growth factor receptor (Homo sapiens), P00533 [G719S]; assay: Inhibition of human partial length EGFR G719S mutant (R669 to V1011 residues) expressed in bacterial expression system at 1 uM by Kinomescan method relative to control
[4] = target: Ephrin type-A receptor 4 (Homo sapiens) (UniProt P54764); assay: Inhibition of wild-type human partial length EPHA4 (T601 to R897 residues) expressed in bacterial expression system at 1 uM by Kinomescan method relative to control
[5] = target: Ephrin type-A receptor 6 (Homo sapiens) (UniProt Q9UF33); assay: Inhibition of wild-type human partial length EPHA6 (Y700 to E1046 residues) expressed in bacterial expression system at 1 uM by Kinomescan method relative to control
[6] = target: Ephrin type-B receptor 4 (Homo sapiens) (UniProt P54760); assay: Inhibition of wild-type human partial length EPHB4 (H585 to G892 residues) expressed in bacterial expression system at 1 uM by Kinomescan method relative to control
[7] = target: Serine/threonine-protein kinase/endoribonuclease IRE1 (Homo sapiens) (UniProt O75460); assay: Inhibition of wild-type human partial length ERN1 (S551 to E852 residues) expressed in mammalian expression system at 1 uM by Kinomescan method relative to control
[8] = target: G protein-coupled receptor kinase 3 (Homo sapiens) (UniProt P35626); assay: Inhibition of wild-type human full length GRK3 (M1 to L688 residues) expressed in mammalian expression system at 1 uM by Kinomescan method relative to control
[9] = target: Homeodomain-interacting protein kinase 4 (Homo sapiens) (UniProt Q8NE63); assay: Inhibition of wild-type human partial length HIPK4 (M1 to V384 residues) expressed in bacterial expression system at 1 uM by Kinomescan method relative to control
[10] = target: Tyrosine-protein kinase Mer (Homo sapiens) (UniProt Q12866); assay: Inhibition of wild-type human partial length MERTK (R557 to L884 residues) expressed in bacterial expression system at 1 uM by Kinomescan method relative to control
[11] = target: Serine/threonine-protein kinase PAK 2 (Homo sapiens) (UniProt Q13177); assay: Inhibition of wild-type human partial length PAK2 (P151 to R525 residues) expressed in bacterial expression system at 1 uM by Kinomescan method relative to control
[12] = target: Protein kinase C epsilon type (Homo sapiens) (UniProt Q02156); assay: Inhibition of wild-type human partial length PRKCE (A378 to P737 residues) expressed in mammalian expression system at 1 uM by Kinomescan method relative to control
[13] = target: Interferon-induced, double-stranded RNA-activated protein kinase (Homo sapiens) (UniProt P19525); assay: Inhibition of wild-type human partial length PRKR (F247 to C551 residues) expressed in bacterial expression system at 1 uM by Kinomescan method relative to control
[14] = target: Tyrosine-protein kinase BTK (Homo sapiens, UniProt Q06187); assay: biochemical
Description: Reversible inhibition of recombinant full-length N-terminal 6-His-tagged human BTK expressed in baculovirus infected Sf21 insect cells using fluorescent-labeled polyGAT peptide as substrate incubated for 30 mins by TR-FRET assay

[15] = target: Cytoplasmic tyrosine-protein kinase BMX (Homo sapiens) (UniProt P51813); assay: Inhibition of wild-type human full length BMX (M1 to H675 residues) expressed in bacterial expression system at 10 uM by Kinomescan method relative to control
Cytoplasmic tyrosine-protein kinase BMX (Homo sapiens), sequence (P51813 whole entry, the tested form may be a part): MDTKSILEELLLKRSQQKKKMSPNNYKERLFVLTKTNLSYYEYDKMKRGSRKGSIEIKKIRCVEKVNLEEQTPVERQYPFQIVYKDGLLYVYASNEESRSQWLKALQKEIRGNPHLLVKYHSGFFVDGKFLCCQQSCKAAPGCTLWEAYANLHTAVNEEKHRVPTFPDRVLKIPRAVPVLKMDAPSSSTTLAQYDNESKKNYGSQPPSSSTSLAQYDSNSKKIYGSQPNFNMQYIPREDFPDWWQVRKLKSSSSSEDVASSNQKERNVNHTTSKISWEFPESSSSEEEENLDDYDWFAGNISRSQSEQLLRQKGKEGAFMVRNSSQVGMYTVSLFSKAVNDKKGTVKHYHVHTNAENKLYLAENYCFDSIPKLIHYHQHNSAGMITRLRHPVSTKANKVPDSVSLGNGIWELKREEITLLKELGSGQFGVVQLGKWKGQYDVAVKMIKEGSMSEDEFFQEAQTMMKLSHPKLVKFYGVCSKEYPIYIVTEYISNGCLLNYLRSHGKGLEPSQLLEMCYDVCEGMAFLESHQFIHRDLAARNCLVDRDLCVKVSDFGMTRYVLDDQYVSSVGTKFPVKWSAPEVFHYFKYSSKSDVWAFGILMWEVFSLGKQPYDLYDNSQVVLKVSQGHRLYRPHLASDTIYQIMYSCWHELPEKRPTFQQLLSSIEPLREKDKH

[16] = target: Tyrosine-protein kinase ITK/TSK (Homo sapiens) (UniProt Q08881); assay: Inhibition of wild-type human partial length ITK (R335 to L620 residues) expressed in bacterial expression system at 10 uM by Kinomescan method relative to control
Tyrosine-protein kinase ITK/TSK (Homo sapiens), sequence (Q08881 whole entry, the tested form may be a part): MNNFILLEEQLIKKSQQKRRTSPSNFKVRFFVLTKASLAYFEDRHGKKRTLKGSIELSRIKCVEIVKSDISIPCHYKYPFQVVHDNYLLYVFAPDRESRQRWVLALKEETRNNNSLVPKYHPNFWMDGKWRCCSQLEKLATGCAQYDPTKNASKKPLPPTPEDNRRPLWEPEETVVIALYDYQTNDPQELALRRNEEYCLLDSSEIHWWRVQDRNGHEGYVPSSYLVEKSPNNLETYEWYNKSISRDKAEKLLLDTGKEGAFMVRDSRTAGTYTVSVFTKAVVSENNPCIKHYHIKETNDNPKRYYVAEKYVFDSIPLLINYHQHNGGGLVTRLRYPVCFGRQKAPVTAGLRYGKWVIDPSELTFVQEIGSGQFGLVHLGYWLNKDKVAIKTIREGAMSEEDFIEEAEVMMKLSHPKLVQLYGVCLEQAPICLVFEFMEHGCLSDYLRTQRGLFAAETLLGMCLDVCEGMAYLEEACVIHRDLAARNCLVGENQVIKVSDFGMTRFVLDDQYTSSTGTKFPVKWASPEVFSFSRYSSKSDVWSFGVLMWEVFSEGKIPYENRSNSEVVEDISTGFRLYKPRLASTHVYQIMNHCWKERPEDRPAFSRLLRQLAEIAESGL

[17] = target: MAP kinase-interacting serine/threonine-protein kinase 2 (Homo sapiens) (UniProt Q9HBH9); assay: Inhibition of wild-type human partial length MKNK2 (G63 to S388 residues) expressed in mammalian expression system at 10 uM by Kinomescan method relative to control
MAP kinase-interacting serine/threonine-protein kinase 2 (Homo sapiens), sequence (Q9HBH9 whole entry, looked up, the tested form may be a part): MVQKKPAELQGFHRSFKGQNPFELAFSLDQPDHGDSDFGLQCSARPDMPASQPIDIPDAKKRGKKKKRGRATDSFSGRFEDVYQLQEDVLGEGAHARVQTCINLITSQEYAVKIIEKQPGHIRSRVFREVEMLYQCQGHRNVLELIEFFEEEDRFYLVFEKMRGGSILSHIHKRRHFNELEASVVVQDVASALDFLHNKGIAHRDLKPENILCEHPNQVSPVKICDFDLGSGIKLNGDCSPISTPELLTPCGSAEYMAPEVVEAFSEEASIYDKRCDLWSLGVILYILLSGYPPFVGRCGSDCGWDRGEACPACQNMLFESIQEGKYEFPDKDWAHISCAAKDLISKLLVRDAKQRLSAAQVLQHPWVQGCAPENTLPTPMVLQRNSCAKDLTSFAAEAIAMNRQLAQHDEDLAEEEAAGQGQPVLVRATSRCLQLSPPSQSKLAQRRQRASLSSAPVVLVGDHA

[18] = target: Serine/threonine-protein kinase MRCK beta (Homo sapiens) (UniProt Q9Y5S2); assay: Inhibition of wild-type human partial length MRCKB (L56 to S417 residues) expressed in bacterial expression system at 10 uM by Kinomescan method relative to control
[19] = target: Serine/threonine-protein kinase Nek1 (Homo sapiens) (UniProt Q96PY6); assay: Inhibition of wild-type human partial length NEK1 (M1 to K278 residues) expressed in bacterial expression system at 10 uM by Kinomescan method relative to control
[20] = test system: Phosphatidylinositol 4,5-bisphosphate 3-kinase catalytic subunit alpha isoform (Homo sapiens), P42336 [H1047L]; assay: Inhibition of human partial length PIK3CA H1047L mutant (R108 to N1068 residues) expressed in mammalian expression system at 10 uM by Kinomescan method relative to control
[21] = target: Protein kinase C delta type (Homo sapiens) (UniProt Q05655); assay: Inhibition of wild-type human partial length PRKCD (Q328 to D676 residues) expressed in bacterial expression system at 10 uM by Kinomescan method relative to control
Protein kinase C delta type (Homo sapiens), sequence (Q05655 whole entry, looked up, the tested form may be a part): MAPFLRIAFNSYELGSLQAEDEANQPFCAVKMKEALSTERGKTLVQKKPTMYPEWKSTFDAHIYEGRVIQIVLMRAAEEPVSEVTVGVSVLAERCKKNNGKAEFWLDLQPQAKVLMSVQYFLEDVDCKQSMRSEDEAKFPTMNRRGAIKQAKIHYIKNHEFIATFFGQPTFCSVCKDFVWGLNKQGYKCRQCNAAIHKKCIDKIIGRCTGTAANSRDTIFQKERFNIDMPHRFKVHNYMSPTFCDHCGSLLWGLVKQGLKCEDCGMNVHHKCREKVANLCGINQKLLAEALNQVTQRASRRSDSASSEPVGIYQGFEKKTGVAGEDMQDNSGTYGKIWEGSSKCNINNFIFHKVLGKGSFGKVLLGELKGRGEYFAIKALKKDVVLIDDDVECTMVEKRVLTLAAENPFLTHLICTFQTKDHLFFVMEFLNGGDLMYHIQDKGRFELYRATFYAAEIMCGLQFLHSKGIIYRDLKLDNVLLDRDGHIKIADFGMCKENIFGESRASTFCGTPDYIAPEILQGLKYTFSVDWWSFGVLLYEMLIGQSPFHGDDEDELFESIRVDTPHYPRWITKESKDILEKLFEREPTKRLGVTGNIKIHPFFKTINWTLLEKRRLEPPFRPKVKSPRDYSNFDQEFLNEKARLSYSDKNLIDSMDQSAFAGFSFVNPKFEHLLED

[22] = target: Protein-tyrosine kinase 2-beta (Homo sapiens) (UniProt Q14289); assay: Inhibition of wild-type human full length PYK2 (M1 to E967 residues) expressed in bacterial expression system at 10 uM by Kinomescan method relative to control
Protein-tyrosine kinase 2-beta (Homo sapiens), sequence (Q14289 whole entry, looked up, the tested form may be a part): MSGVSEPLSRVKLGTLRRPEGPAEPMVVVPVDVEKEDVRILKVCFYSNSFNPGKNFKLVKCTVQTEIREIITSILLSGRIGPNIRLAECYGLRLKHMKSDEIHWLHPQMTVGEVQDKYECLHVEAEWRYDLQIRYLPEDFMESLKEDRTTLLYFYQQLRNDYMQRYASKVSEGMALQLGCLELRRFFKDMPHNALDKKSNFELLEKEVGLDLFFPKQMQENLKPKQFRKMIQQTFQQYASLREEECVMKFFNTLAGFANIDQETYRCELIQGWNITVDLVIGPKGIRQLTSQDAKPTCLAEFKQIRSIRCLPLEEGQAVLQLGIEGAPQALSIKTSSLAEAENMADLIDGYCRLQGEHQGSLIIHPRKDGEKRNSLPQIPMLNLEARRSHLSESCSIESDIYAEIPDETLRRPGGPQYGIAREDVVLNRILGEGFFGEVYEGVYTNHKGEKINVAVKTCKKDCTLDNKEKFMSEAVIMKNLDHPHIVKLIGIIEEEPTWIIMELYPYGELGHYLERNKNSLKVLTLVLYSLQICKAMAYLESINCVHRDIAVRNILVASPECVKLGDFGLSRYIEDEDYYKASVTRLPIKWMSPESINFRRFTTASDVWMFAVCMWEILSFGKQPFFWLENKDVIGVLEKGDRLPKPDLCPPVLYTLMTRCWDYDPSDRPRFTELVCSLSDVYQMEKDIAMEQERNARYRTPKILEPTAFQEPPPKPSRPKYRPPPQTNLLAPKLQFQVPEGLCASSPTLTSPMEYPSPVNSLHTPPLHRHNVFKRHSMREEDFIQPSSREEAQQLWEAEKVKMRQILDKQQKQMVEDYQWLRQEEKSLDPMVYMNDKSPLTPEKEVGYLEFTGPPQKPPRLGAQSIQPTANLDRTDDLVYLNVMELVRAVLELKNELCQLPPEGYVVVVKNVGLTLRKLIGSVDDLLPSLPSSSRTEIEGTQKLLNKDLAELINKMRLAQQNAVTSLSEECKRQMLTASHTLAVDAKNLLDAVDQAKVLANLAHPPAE

[23] = target: Ribosomal protein S6 kinase alpha-5 (Homo sapiens) (UniProt O75582); assay: Inhibition of wild-type human partial length C-terminal RPS6KA5 kinase domain 2 (V390 to T718 residues) expressed in bacterial expression system at 10 uM by Kinomescan method relative to control
[24] = target: Ribosomal protein S6 kinase beta-1 (Homo sapiens) (UniProt P23443); assay: Inhibition of wild-type human partial length S6K1 (M1 to S421 residues) expressed in mammalian expression system at 10 uM by Kinomescan method relative to control
[25] = target: Tyrosine-protein kinase SYK (Homo sapiens) (UniProt P43405); assay: Inhibition of wild-type human partial length SYK (D354 to N635 residues) expressed in bacterial expression system at 10 uM by Kinomescan method relative to control
[26] = target: Tyrosine-protein kinase receptor Tie-1 (Homo sapiens) (UniProt P35590); assay: Inhibition of wild-type human partial length TIE1 (T819 to A1138 residues) expressed in bacterial expression system at 10 uM by Kinomescan method relative to control
[27] = target: Mitogen-activated protein kinase kinase kinase 19 (Homo sapiens) (UniProt Q56UN5); assay: Inhibition of wild-type human partial length YSK4 (T1019 to H1328 residues) expressed in mammalian expression system at 10 uM by Kinomescan method relative to control
Mitogen-activated protein kinase kinase kinase 19 (Homo sapiens), sequence (Q56UN5 whole entry, the tested form may be a part): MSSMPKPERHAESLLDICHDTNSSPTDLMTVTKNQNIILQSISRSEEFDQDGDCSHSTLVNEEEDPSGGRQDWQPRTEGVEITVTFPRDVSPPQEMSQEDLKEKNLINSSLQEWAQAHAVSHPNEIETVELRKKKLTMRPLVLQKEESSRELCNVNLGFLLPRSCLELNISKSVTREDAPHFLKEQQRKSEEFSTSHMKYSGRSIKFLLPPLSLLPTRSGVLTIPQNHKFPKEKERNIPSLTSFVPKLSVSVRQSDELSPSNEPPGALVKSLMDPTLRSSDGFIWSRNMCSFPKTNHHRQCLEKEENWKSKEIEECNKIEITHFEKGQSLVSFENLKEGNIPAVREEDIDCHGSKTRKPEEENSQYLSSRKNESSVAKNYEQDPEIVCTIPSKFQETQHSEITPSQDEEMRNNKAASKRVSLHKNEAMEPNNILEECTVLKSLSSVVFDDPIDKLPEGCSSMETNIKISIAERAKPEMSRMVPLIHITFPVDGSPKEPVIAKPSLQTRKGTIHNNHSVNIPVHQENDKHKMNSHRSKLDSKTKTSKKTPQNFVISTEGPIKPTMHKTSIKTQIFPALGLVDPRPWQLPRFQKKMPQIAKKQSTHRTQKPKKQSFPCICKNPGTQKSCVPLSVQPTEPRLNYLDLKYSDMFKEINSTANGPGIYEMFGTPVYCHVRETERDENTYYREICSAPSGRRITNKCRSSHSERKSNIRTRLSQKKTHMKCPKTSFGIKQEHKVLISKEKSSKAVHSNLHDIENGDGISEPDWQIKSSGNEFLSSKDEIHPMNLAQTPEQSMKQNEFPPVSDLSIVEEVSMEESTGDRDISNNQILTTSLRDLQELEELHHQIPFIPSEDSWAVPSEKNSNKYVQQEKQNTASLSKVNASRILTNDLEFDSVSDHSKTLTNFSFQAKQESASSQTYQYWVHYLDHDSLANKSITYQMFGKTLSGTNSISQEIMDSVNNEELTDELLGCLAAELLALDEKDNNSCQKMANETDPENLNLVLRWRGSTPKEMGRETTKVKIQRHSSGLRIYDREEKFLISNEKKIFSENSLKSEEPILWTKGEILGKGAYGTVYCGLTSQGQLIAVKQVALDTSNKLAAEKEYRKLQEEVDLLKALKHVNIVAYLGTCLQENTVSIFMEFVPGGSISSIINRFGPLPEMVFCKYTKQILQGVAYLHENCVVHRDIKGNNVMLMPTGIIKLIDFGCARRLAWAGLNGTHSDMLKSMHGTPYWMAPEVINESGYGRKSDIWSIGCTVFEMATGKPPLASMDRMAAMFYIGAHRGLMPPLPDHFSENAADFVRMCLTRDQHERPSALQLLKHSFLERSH

Work on O=C(Nc1cccc([C@@H]2CN(c3ncnc4[nH]ccc34)CCN2CCO)c1)Nc1c(F)cccc1N1CCCC1 yielded an inhibition [1] of 100%, an inhibition [2] of 94% and an inhibition [3] of 90%. The inhibition [4] was 100%, the inhibition [5] was 99% and the inhibition [6] was 95%. For the same molecule, the inhibition [7] was 56%, the inhibition [8] was 93% and the inhibition [9] was 96%. The inhibition [10] was 31%, the inhibition [11] was 87% and the inhibition [12] was 72%. The inhibition [13] was 100% and the IC50 [14] was 1 nM.
O=C(Nc1cccc([C@H]2CCCN(c3ncnc4[nH]ccc34)C2)c1)Nc1ccccc1N1CCCC1 showed an inhibition [15] of 43%, an inhibition [16] of 7% and an inhibition [17] of 34%. It also gave an inhibition [18] of 90%, an inhibition [19] of 100% and an inhibition [20] of 100%. It also gave an inhibition [21] of 100%, an inhibition [22] of 96% and an inhibition [23] of 75%. It also gave an inhibition [24] of 23%, an inhibition [25] of 52% and an inhibition [26] of 45%. It also gave an inhibition [27] of 2.3%.
